Test results as given in ChEMBL document CHEMBL2073999, “Vectorial transport by double-transfected cells expressing the human uptake transporter SLC21A8 and the apical export pump ABCC2” (Mol Pharmacol, 2001).

The compounds below were run on MDCK-II (assay: TP_TRANSPORTER: transepithelial transport in OATP1B3/MRP2 double transfectant (MDCKII)).
Assay type: functional, cell-based
O=C1OC(c2ccc(O)c(S(=O)(=O)O)c2)(c2ccc(O)c(S(=O)(=O)O)c2)c2c(Br)c(Br)c(Br)c(Br)c21 was tested, and the Activity was “substrate []”. Cc1ccc(N(CC(=O)O)CC(=O)O)c(OCCOc2cc(-c3c4cc(Cl)c(=O)cc-4oc4cc(O)c(Cl)cc34)ccc2N(CC(=O)O)CC(=O)O)c1 was tested, and the Activity was “substrate []”. C[C@]12CC[C@H](OS(=O)(=O)O)CC1=CC[C@@H]1[C@@H]2CC[C@]2(C)C(=O)CC[C@@H]12 was tested, and the Activity was “substrate []”. CO[C@H]1/C=C/O[C@@]2(C)Oc3c(C)c(O)c4c(O)c(c(/C=N/N5CCN(C)CC5)c(O)c4c3C2=O)NC(=O)/C(C)=C\C=C\[C@H](C)[C@H](O)[C@@H](C)[C@@H](O)[C@@H](C)[C@H](OC(C)=O)[C@@H]1C was tested, and the Activity was “substrate []”. For CCCCC/C=C\C\C=C/C=C/C=C/[C@@H](SC[C@@H](NC(=O)CC[C@H](N)C(=O)O)C(=O)NCC(=O)O)[C@@H](O)CCCC(=O)O, the Activity was “substrate []”. With C[C@]12CC[C@@H]3c4ccc(O)cc4CC[C@H]3[C@@H]1CC[C@@H]2O[C@@H]1O[C@H](C(=O)O)[C@@H](O)[C@H](O)[C@H]1O the Activity was “substrate []”.
